Reference: the kinase profiling compilation of Christmann-Franck et al. (2016)

Legend:
Assay in all cases: radiometric filter-binding kinase assay
[1] = target: AURKA (human) (UniProt O14965)
[2] = target: BRSK2 (human) (UniProt Q8IWQ3)
[3] = target: CDK2 CCNA2 (human) (UniProt P20248+P24941)
[4] = target: CHEK1 (human) (UniProt O14757)
[5] = target: CHEK2 (human) (UniProt O96017); conditions: compound 10.0 µM
[6] = target: CLK2 (human) (UniProt P49760)
[7] = target: DAPK1 (human) (UniProt P53355)
[8] = target: EEF2K (human) (UniProt O00418)
[9] = target: EPHB4 (human) (UniProt P54760)
[10] = target: ERBB4 (human) (UniProt Q15303)
[11] = target: FLT1 (human) (UniProt P17948)
[12] = target: GCK (human) (UniProt Q12851)
[13] = target: HIPK1 (human) (UniProt Q86Z02)
[14] = target: HIPK3 (human) (UniProt Q9H422)
[15] = target: JAK2 JH1 JH2 (human) (UniProt O60674)
[16] = target: MAP3K1 (human) (UniProt Q13233); conditions: compound 10.0 µM
[17] = target: MAP3K5 (human) (UniProt Q99683)
[18] = target: MAPK1 (human) (UniProt P28482)
[19] = target: MAPK3 (human) (UniProt P27361)
[20] = target: MARK3 (human) (UniProt P27448)
[21] = target: MARK4 (human) (UniProt Q96L34)
[22] = target: MST4 (human) (UniProt Q9P289)
[23] = target: NTRK1 (human) (UniProt P04629); conditions: compound 10.0 µM
[24] = target: NUAK1 (human) (UniProt O60285)
[25] = target: PAK6 (human) (UniProt Q9NQU5)
[26] = target: PLK1 (human) (UniProt P53350)
[27] = target: PRKCA (human) (UniProt P17252)
[28] = target: PRKCZ (human) (UniProt Q05513); conditions: compound 10.0 µM
[29] = target: RPS6KA1 KD1 KD2 (human) (UniProt Q15418)
[30] = target: RPS6KA3 KD1 KD2 (human) (UniProt P51812)
[31] = target: RPS6KA5 KD1 KD2 (human) (UniProt O75582)
[32] = tested on: SGK1 (human), O00141 [S422D]
[33] = target: SRC (human) (UniProt P12931); conditions: compound 10.0 µM
[34] = target: STK3 (human) (UniProt Q13188)
[35] = target: TAOK1 (human) (UniProt Q7L7X3)

Sequence of FLT1 (human) (P17948 whole entry, looked up): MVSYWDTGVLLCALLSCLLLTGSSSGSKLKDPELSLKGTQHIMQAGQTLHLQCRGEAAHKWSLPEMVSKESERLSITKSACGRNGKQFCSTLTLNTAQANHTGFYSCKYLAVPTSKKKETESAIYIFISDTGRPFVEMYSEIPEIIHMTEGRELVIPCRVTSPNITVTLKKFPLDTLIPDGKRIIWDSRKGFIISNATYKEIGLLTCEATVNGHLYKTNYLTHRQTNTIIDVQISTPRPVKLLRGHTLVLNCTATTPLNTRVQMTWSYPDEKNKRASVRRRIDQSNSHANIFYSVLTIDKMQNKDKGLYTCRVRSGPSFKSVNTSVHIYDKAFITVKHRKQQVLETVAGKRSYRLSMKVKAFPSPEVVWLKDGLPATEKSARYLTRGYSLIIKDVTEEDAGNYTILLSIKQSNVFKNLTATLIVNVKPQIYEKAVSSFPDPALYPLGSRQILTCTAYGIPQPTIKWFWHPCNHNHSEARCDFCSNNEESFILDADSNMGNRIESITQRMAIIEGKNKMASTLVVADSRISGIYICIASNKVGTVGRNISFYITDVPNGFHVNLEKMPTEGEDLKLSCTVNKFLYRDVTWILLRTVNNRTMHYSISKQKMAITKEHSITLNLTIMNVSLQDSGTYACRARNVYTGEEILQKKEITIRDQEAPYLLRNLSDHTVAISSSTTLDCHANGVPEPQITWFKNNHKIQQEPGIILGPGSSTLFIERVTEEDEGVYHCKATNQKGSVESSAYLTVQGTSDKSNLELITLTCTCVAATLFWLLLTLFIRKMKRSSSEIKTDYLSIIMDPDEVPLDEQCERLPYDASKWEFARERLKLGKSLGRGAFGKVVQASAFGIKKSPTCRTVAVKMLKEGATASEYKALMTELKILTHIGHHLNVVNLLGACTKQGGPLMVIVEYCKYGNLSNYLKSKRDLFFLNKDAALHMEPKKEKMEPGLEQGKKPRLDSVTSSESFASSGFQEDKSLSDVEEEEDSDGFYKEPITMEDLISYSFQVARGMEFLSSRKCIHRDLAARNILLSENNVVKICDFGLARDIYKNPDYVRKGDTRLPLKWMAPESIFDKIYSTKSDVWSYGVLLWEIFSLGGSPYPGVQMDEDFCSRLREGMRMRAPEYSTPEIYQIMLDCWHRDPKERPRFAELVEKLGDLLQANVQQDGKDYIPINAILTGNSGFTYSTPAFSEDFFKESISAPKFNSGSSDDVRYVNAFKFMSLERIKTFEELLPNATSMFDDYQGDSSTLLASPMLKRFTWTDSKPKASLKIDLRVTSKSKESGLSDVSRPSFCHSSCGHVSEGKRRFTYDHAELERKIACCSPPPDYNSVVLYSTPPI
Sequence of AURKA (human) (O14965 whole entry, looked up): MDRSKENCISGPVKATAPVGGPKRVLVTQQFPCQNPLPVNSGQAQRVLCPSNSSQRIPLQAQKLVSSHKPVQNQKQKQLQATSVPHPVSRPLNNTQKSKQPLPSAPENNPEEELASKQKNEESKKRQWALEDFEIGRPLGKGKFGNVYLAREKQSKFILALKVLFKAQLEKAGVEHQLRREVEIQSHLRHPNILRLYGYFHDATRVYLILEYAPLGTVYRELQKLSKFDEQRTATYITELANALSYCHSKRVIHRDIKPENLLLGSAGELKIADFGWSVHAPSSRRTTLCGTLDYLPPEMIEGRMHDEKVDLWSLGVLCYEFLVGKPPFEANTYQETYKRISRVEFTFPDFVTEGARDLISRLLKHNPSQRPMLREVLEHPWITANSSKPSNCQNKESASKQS
Sequence of EEF2K (human) (O00418 whole entry, looked up): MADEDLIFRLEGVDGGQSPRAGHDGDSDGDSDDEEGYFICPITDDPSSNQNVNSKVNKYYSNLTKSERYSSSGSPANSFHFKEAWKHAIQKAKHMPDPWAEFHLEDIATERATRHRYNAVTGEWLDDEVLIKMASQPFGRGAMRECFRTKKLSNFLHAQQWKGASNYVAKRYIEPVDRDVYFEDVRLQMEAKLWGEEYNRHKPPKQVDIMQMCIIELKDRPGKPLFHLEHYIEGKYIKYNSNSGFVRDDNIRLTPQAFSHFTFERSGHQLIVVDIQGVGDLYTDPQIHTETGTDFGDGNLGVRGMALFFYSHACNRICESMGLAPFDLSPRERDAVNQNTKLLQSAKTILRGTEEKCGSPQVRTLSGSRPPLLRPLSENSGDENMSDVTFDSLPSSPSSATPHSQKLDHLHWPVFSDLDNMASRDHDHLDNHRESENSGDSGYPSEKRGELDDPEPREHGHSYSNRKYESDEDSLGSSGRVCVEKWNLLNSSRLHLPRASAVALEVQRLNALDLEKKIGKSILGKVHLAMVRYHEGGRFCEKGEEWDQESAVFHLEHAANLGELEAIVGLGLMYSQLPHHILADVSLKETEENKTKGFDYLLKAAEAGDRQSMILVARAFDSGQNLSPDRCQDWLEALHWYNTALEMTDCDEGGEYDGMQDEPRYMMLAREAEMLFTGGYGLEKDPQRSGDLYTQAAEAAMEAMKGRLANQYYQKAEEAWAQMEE
Sequence of GCK (human) (Q12851 whole entry, looked up): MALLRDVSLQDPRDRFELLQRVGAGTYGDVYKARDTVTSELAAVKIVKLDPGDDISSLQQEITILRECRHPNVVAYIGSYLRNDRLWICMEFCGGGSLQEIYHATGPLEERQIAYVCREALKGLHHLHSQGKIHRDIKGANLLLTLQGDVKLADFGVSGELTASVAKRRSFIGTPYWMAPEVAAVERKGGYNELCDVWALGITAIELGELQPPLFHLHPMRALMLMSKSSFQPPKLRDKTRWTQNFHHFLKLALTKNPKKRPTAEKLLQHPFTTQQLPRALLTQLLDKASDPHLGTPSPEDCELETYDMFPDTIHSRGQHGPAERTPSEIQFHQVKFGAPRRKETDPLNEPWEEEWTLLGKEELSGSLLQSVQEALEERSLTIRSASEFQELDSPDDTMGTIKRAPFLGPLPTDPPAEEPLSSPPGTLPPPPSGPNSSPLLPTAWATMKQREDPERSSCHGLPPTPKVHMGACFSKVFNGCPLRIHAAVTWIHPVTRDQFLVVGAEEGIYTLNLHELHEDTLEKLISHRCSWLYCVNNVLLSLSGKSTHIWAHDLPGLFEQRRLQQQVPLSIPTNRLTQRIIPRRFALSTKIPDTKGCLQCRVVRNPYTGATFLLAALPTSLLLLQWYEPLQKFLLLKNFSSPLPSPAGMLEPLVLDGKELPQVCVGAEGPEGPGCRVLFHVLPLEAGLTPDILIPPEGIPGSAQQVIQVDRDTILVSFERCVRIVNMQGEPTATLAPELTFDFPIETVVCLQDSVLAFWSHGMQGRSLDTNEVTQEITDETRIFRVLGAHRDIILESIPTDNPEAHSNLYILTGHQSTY
Sequence of PAK6 (human) (Q9NQU5 whole entry, looked up): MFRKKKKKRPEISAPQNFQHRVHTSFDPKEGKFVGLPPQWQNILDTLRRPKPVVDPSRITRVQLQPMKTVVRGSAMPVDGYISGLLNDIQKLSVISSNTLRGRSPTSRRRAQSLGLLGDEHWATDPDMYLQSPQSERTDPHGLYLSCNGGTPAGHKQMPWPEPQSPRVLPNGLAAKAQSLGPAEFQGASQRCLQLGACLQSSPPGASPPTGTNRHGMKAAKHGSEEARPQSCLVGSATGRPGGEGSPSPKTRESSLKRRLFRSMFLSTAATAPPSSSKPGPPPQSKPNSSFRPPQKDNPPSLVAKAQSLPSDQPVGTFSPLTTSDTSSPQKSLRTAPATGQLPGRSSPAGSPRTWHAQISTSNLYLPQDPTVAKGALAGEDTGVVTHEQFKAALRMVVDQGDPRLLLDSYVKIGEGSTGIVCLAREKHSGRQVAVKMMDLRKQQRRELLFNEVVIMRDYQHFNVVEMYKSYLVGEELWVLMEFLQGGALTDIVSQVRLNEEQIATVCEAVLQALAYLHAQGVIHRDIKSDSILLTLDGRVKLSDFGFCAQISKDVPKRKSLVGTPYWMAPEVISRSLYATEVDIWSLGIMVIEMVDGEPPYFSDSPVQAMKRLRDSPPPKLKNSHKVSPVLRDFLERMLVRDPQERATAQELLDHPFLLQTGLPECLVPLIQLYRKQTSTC
Sequence of MST4 (human) (Q9P289 whole entry, looked up): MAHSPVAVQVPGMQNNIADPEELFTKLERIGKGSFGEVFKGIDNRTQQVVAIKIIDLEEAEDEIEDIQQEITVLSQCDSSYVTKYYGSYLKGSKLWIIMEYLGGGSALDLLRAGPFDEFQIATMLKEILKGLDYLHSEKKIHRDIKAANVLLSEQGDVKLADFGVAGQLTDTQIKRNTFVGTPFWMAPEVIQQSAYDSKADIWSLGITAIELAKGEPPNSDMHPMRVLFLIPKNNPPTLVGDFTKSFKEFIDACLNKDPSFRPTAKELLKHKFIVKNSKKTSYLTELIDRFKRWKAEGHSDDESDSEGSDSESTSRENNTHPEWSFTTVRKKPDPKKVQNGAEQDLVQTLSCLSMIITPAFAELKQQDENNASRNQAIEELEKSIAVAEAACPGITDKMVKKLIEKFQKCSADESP

SMILES: Cc1ccc2c(c1)C(=O)[C@@]1(O)CCN(c3ccccc3)C1=N2
- residual activity ([1]; compound 10.0 µM): 99%
- residual activity ([2]; compound 10.0 µM): 98%
- residual activity ([3]; compound 10.0 µM): 116%
- residual activity ([3]; compound 100.0 µM): 92%
- residual activity ([4]; compound 10.0 µM): 90%
- residual activity ([4]; compound 100.0 µM): 96%
- residual activity [5]: 100%
- residual activity ([6]; compound 10.0 µM): 87%
- residual activity ([7]; compound 10.0 µM): 93%
- residual activity ([8]; compound 10.0 µM): 83%
- residual activity ([9]; compound 10.0 µM): 99%
- residual activity ([10]; compound 10.0 µM): 87%
- residual activity ([11]; compound 10.0 µM): 85%
- residual activity ([12]; compound 10.0 µM): 97%
- residual activity ([13]; compound 10.0 µM): 88%
- residual activity ([14]; compound 10.0 µM): 103%
- residual activity ([15]; compound 10.0 µM): 101%
- residual activity [16]: 100%
- residual activity ([17]; compound 10.0 µM): 91%
- residual activity ([18]; compound 10.0 µM): 91%
- residual activity ([18]; compound 100.0 µM): 82%
- residual activity ([19]; compound 10.0 µM): 102%
- residual activity ([20]; compound 10.0 µM): 91%
- residual activity ([21]; compound 10.0 µM): 94%
- residual activity ([22]; compound 10.0 µM): 99%
- residual activity [23]: 103%
- residual activity ([24]; compound 10.0 µM): 97%
- residual activity ([25]; compound 10.0 µM): 83%
- residual activity ([26]; compound 10.0 µM): 99%
- residual activity ([27]; compound 10.0 µM): 103%
- residual activity ([27]; compound 100.0 µM): 75%
- residual activity [28]: 108%
- residual activity ([29]; compound 10.0 µM): 76%
- residual activity ([29]; compound 100.0 µM): 77%
- residual activity ([30]; compound 10.0 µM): 72%
- residual activity ([31]; compound 10.0 µM): 83%
- residual activity ([31]; compound 100.0 µM): 75%
- residual activity ([32]; compound 10.0 µM): 101%
- residual activity ([32]; compound 100.0 µM): 60%
- residual activity [33]: 80%
- residual activity ([34]; compound 10.0 µM): 104%
- residual activity ([35]; compound 10.0 µM): 82%

SMILES: NS(=O)(=O)OC[C@@H]1C[C@@H](n2ccc3c(N[C@H]4CCc5ccccc54)ncnc32)C[C@@H]1O
- residual activity ([1]; compound 1.0 µM): 103%
- residual activity ([1]; compound 10.0 µM): 97%
- residual activity ([2]; compound 1.0 µM): 92%
- residual activity ([2]; compound 10.0 µM): 86%
- residual activity ([3]; compound 1.0 µM): 84%
- residual activity ([3]; compound 10.0 µM): 90%
- residual activity ([4]; compound 1.0 µM): 91%
- residual activity ([4]; compound 10.0 µM): 98%
- residual activity [5]: 67%
- residual activity ([6]; compound 1.0 µM): 127%
- residual activity ([7]; compound 1.0 µM): 110%
- residual activity ([7]; compound 10.0 µM): 113%
- residual activity ([8]; compound 1.0 µM): 100%
- residual activity ([8]; compound 10.0 µM): 107%
- residual activity ([9]; compound 1.0 µM): 106%
- residual activity ([9]; compound 10.0 µM): 108%
- residual activity ([10]; compound 1.0 µM): 110%
- residual activity ([10]; compound 10.0 µM): 116%
- residual activity ([11]; compound 1.0 µM): 89%
- residual activity ([11]; compound 10.0 µM): 104%
- residual activity ([12]; compound 1.0 µM): 91%
- residual activity ([12]; compound 10.0 µM): 88%
- residual activity ([13]; compound 1.0 µM): 98%
- residual activity ([14]; compound 1.0 µM): 84%
- residual activity ([14]; compound 10.0 µM): 89%
- residual activity ([15]; compound 1.0 µM): 89%
- residual activity ([15]; compound 10.0 µM): 93%
- residual activity [16]: 107%
- residual activity ([17]; compound 1.0 µM): 87%
- residual activity ([17]; compound 10.0 µM): 87%
- residual activity ([18]; compound 10.0 µM): 89%
- residual activity ([19]; compound 1.0 µM): 77%
- residual activity ([19]; compound 10.0 µM): 73%
- residual activity ([20]; compound 1.0 µM): 101%
- residual activity ([20]; compound 10.0 µM): 100%
- residual activity ([21]; compound 1.0 µM): 93%
- residual activity ([21]; compound 10.0 µM): 103%
- residual activity ([22]; compound 1.0 µM): 83%
- residual activity ([22]; compound 10.0 µM): 88%
- residual activity [23]: 92%
- residual activity ([24]; compound 1.0 µM): 98%
- residual activity ([24]; compound 10.0 µM): 96%
- residual activity ([25]; compound 1.0 µM): 94%
- residual activity ([25]; compound 10.0 µM): 91%
- residual activity ([26]; compound 1.0 µM): 93%
- residual activity ([26]; compound 10.0 µM): 95%
- residual activity ([27]; compound 10.0 µM): 88%
- residual activity [28]: 96%
- residual activity ([29]; compound 1.0 µM): 96%
- residual activity ([29]; compound 10.0 µM): 95%
- residual activity ([30]; compound 1.0 µM): 100%
- residual activity ([30]; compound 10.0 µM): 96%
- residual activity ([31]; compound 1.0 µM): 103%
- residual activity ([31]; compound 10.0 µM): 110%
- residual activity ([32]; compound 1.0 µM): 95%
- residual activity ([32]; compound 10.0 µM): 112%
- residual activity [33]: 113%
- residual activity ([34]; compound 1.0 µM): 87%
- residual activity ([34]; compound 10.0 µM): 84%
- residual activity ([35]; compound 1.0 µM): 104%
- residual activity ([35]; compound 10.0 µM): 100%
